Reference: patent US11040028B2, “Penicinotam derivative, preparation method and use thereof” (OCEAN UNIVERSITY OF CHINA, priority 2017, dated 2021)

What was measured:
Format in all cases: cell-based
[1] = tested on: BHK-21 cells; assay: Anti-fibrosis activity test: inhibition of BHK-21 cell proliferation (CCK-8); details: Mesocricetus auratus, BHK-21, 48 h
How it was run: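 Read-out: CCK-8 absorbance at 450 nm after 2 h, giving proliferation inhibition (1−Ai/Ao)×100% versus blank control, from which IC50 was derived. Cells had been treated with compounds for 48 h after 24 h adherence at 37° C. Pirfenidone served as positive control.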

[2] = tested on: human lung fibroblasts HFL1; assay: Anti-fibrosis activity test: inhibition of proliferation of human lung fibroblasts HFL1 (CCK-8); details: Homo sapiens, HFL1, 48 h
How it was run: (§1)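 Read-out: absorbance at 450 nm after 2 h with CCK-8, following 48 h of compound exposure of adhered cells (2×10^4 cells/mL, 24 h attachment, 37° C, 5% CO2). Proliferation inhibition was taken relative to the blank control, and IC50 values were calculated from it.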

[3] = tested on: human hepatic stellate cells LX-2; assay: Anti-fibrosis activity test: inhibition of proliferation of human hepatic stellate cells LX-2 (CCK-8); details: Homo sapiens, 48 h
How it was run: as §1

[4] = tested on: human fibrosarcoma cells HT-1080; assay: Anti-fibrosis activity test: inhibition of proliferation of human fibrosarcoma cells HT-1080 (CCK-8); details: Homo sapiens, HT-1080, 48 h
How it was run: as §1

[5] = tested on: human dermal fibroblasts CCC-ESF-1; assay: Anti-fibrosis activity test: inhibition of proliferation of human dermal fibroblasts CCC-ESF-1 (CCK-8); details: Fibroblast
How it was run: as §1

[6] = tested on: human embryonic lung fibroblast IMR-90; assay: Anti-fibrosis activity test: inhibition of proliferation of human embryonic lung fibroblast IMR-90 (CCK-8)
How it was run: as §1

[7] = tested on: cardiac fibroblast RAT-iCell-C002; assay: Anti-fibrosis activity test: inhibition of proliferation of cardiac fibroblast RAT-iCell-C002 (CCK-8); details: Cardiac fibroblast, 48 h
How it was run: as §1

[8] = tested on: NF-κB; assay: Immunological activity test: inhibition of NF-κB activity; details: initial concentration of 30 μM; a/b isomers given as first/second symbol; read-out: IC50 (μM), inhibitory activity against NF-κB
How it was run: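 NF-κB inhibition was tested at an initial 30 μM compound concentration, with parthenolide as positive control, and IC50 values were determined from follow-up analysis.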

[9] = tested on: mouse macrophages (RAW264.7); assay: Lipopolysaccharide-induced NO secretion in macrophages (Griess); details: Mus musculus, RAW264.7, 24 h, RAW264.7, LPS 1 μg/ml, a/b isomers given as first/second symbol, read-out: IC50 (μM), inhibition of lipopolysaccharide-induced NO secretion in macrophages
How it was run: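 Absorbance at 548 nm after Griess reagent addition to culture supernatant gave NO content; inhibition rate was derived relative to blank control. Cells were mouse RAW264.7 macrophages exposed to compounds and 1 μg/ml LPS for 24 hours.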

[10] = CCK-8, 48 hours after administration
[11] = human lung fibroblasts HFL1, CCK-8, 48 hours
[12] = human hepatic stellate cells LX-2, CCK-8, 48 hours
[13] = human fibrosarcoma cells HT-1080, CCK-8, 48 hours
[14] = human dermal fibroblasts CCC-ESF-1, CCK-8, 48 hours
[15] = human embryonic lung fibroblast IMR-90, CCK-8, 48 hours
[16] = cardiac fibroblast RAT-iCell-C002, CCK-8, 48 hours

Cc1cccc2nc3c(c(O)c12)-c1cccn1C3=O [Compound 776b, 11-hydroxy-10-methyl-5H-pyrrolizino[2,1-b]quinolin-5-one]
IC50 ([1]; 48 h, CCK-8): 0.05 to 5 mM | IC50 ([2]; HFL1 cells, 48 h, CCK-8): 0.05 to 5 mM | IC50 ([3]; LX-2, 48 h, LX-2 cells, CCK-8): 0.05 to 5 mM | IC50 ([4]; HT-1080 cells, 48 h, CCK-8): 0.05 to 5 mM | IC50 ([5]; Homo sapiens, CCC-ESF-1 cells, 48 h, CCK-8): 0.05 to 5 mM | IC50 ([6]; Homo sapiens, IMR-90 cells, 48 h, CCK-8): 0.05 to 5 mM | IC50 ([7]; RAT-iCell-C002 cells, CCK-8): 0.05 to 5 mM | IC50 [8]: 0.1 to 1 µM | IC50 [9]: 1 to 10 µM

O=C(O)COc1c2c(nc3ccc(C(F)(F)F)cc13)-c1cccn1C2=O [Compound 279b, 2-((10-Oxo-7-(trifluoromethyl)-10H-pyrrolizino[1,2-b]quinolin-9-yl)oxy)acetic acid]
IC50 [1, 10]: 0.05 to 5 mM | IC50 [2, 11]: 0.05 to 5 mM | IC50 [3, 12]: 0.05 to 5 mM | IC50 [4, 13]: 0.05 to 5 mM | IC50 [5, 14]: 0.05 to 5 mM | IC50 [6, 15]: 0.05 to 5 mM | IC50 [7, 16]: 0.05 to 5 mM | IC50 [8]: 1 to 10 µM | IC50 [9]: 0.1 to 1 µM

Cc1cccc(COc2c3c(nc4ccccc24)-c2cccn2C3=O)c1 [Compound 609b, 9-((3-methylbenzyl)oxy)-10H-pyrrolizino[1,2-b]quinolin-10-one]
IC50 [1, 10]: 0.05 to 5 mM | IC50 [2, 11]: 0.05 to 5 mM | IC50 [3, 12]: 0.05 to 5 mM | IC50 [4, 13]: 0.05 to 5 mM | IC50 [5, 14]: 0.05 to 5 mM | IC50 [6, 15]: 0.05 to 5 mM | IC50 [7, 16]: 0.05 to 5 mM | IC50 [8]: 1 to 10 µM | IC50 [9]: 1 to 10 µM

O=C1c2c(n(Cc3cc(F)ccc3F)c3ccccc3c2=O)-c2cccn21 [Compound 573a, 4-(2,5-Difluorobenzyl)-9H-pyrrolizino[1,2-b]quinoline-9,10(4H)-dione]
IC50 [1, 10]: 0.05 to 5 mM | IC50 [2, 11]: 0.05 to 5 mM | IC50 [3, 12]: 0.05 to 5 mM | IC50 [4, 13]: 0.05 to 5 mM | IC50 [5, 14]: 0.05 to 5 mM | IC50 [6, 15]: < 0.05 mM | IC50 [7, 16]: 0.05 to 5 mM | IC50 [8]: 1 to 10 µM | IC50 [9]: 1 to 10 µM

N#Cc1ccccc1Cn1c2c(c(=O)c3ccccc31)C(=O)n1cccc1-2 [Compound 577a, 2-((9,10-Dioxo-9H-pyrrolizino[1,2-b]quinolin-4(10H)-yl)methyl)benzonitrile]
IC50 [1, 10]: 0.05 to 5 mM | IC50 [2, 11]: 0.05 to 5 mM | IC50 [3, 12]: < 0.05 mM | IC50 [4, 13]: 0.05 to 5 mM | IC50 [5, 14]: 0.05 to 5 mM | IC50 [6, 15]: 0.05 to 5 mM | IC50 [7, 16]: 0.05 to 5 mM | IC50 [8]: 1 to 10 µM | IC50 [9]: 1 to 10 µM

O=C1c2c(n(CCc3ccccc3)c3ccc(F)cc3c2=O)-c2cccn21 [Compound 141a, 7-Fluoro-4-phenethyl-9H-pyrrolizino[1,2-b]quinoline-9,10(4H)-dione]
IC50 [1, 10]: 0.05 to 5 mM | IC50 [2, 11]: 0.05 to 5 mM | IC50 [3, 12]: 0.05 to 5 mM | IC50 [4, 13]: 0.05 to 5 mM | IC50 [5, 14]: < 0.05 mM | IC50 [6, 15]: 0.05 to 5 mM | IC50 [7, 16]: 0.05 to 5 mM | IC50 [8]: 1 to 10 µM | IC50 [9]: 1 to 10 µM

O=C1c2c(nc3ccccc3c2OCCO)-c2cccn21 [Compound 11b, 9-(2-hydroxyethoxy)-10H-pyrrolizino[1,2-b]quinolin-10-one]
IC50 [1, 10]: 0.05 to 5 mM | IC50 [2, 11]: 0.05 to 5 mM | IC50 [3, 12]: 0.05 to 5 mM | IC50 [4, 13]: 0.05 to 5 mM | IC50 [5, 14]: 0.05 to 5 mM | IC50 [6, 15]: 0.05 to 5 mM | IC50 [7, 16]: 0.05 to 5 mM | IC50 [8]: 1 to 10 µM | IC50 [9]: 1 to 10 µM

O=C1c2c(n(CCCO)c3ccccc3c2=O)-c2cccn21 [Compound 16a, 4-(3-Hydroxypropyl)-9H-pyrrolizino[1,2-b]quinoline-9,10(4H)-dione]
IC50 [1, 10]: 0.05 to 5 mM | IC50 [2, 11]: 0.05 to 5 mM | IC50 [3, 12]: 0.05 to 5 mM | IC50 [4, 13]: 0.05 to 5 mM | IC50 [5, 14]: 0.05 to 5 mM | IC50 [6, 15]: 0.05 to 5 mM | IC50 [7, 16]: 0.05 to 5 mM | IC50 [8]: 1 to 10 µM | IC50 [9]: 1 to 10 µM

N#Cc1cccc2c1c(=O)c1c(n2Cc2ccc(F)cc2)-c2cccn2C1=O [Compound 462a, 4-(4-Fluorobenzyl)-9,10-dioxo-4,10-dihydro-9H-pyrrolizino[1,2-b]quinoline-8-carbonitrile]
IC50 [1, 10]: < 0.05 mM | IC50 [2, 11]: 0.05 to 5 mM | IC50 [3, 12]: 0.05 to 5 mM | IC50 [4, 13]: 0.05 to 5 mM | IC50 [5, 14]: 0.05 to 5 mM | IC50 [6, 15]: 0.05 to 5 mM | IC50 [7, 16]: 0.05 to 5 mM | IC50 [8]: 0.1 to 1 µM | IC50 [9]: 1 to 10 µM
